The source of these data is article PMC9814568, “Peptide transporter structure reveals binding and action mechanism of a potent PEPT1 and PEPT2 inhibitor” (Communications Chemistry, 2022).

In series [1] the target is T1, YePEPT (Yersinia enterocolitica, UniProt A0A2R9TD79, K314A/S412A).
T1 construct: gene YEP4_02370; YePEPT^K314A-S412A, detergent-purified, His-tagged
The experiment in a line: label-free DSF thermal shift at […] LZNV (no Kd). It is filed as binding.

For series [2], the target named is T2, YePEPT (Yersinia enterocolitica, UniProt A0A2R9TD79, K314A).
T2 construct: gene YEP4_02370; YePEPT-K314A, C-terminal HRV3C site and His10 tag (cleaved for crystallisation)
T2 sequence (A0A2R9TD79 1-511 K314A): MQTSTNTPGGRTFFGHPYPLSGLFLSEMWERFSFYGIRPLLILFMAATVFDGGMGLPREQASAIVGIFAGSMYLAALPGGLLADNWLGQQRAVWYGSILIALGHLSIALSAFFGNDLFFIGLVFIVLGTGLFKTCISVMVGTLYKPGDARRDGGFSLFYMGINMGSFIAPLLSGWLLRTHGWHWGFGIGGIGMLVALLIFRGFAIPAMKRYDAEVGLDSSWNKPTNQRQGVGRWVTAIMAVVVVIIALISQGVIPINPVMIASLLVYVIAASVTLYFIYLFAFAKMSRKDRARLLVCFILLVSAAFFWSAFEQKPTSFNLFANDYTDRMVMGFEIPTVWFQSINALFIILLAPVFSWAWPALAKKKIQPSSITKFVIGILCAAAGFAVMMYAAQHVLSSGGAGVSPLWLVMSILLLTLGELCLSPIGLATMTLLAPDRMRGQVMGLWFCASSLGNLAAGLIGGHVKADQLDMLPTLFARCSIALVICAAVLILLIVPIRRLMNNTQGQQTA
Nature of the series: co-crystal structure at […] Å; also thermal shift; IC50 from [3H]Ala-Ala uptake in E. coli cells. It counts as cell-based.

Series [3] deals with T3, YePEPT (Yersinia enterocolitica, UniProt A0A2R9TD79, K314Q/P315G).
T3 construct: gene YEP4_02370; YePEPT^K314Q-P315G, detergent-purified, His-tagged
The experiment in a line: label-free DSF thermal shift at […] LZNV (no Kd). It is filed as binding.

The subject of series [4] is C[C@H](N)C(=O)N[C@@H](C)C(=O)O. Nature of the series: [3H]Ala-Ala uptake kinetics (Km) in E. coli cells overexpressing the transporter. It is filed as cell-based, Yersinia enterocolitica.

On to `CC(C)[C@H](NC(=O)[C@@H](N)CCCCNC(=O)OCc1ccc([N+](=O)[O-])cc1)C(=O)O` [LZNV, Lys[Z(NO2)]-Val], for which the figures for the “label-free DSF thermal shift at 200-800 μM LZNV (no Kd)” value at YePEPT [1] and on YePEPT [3] were “YePEPT^K314A-S412A still showed a strong dose-dependent stabilisation by LZNV” and “This variant shows a concentration-dependent stabilisation by LZNV similar to YePEPT^K314A”, respectively. Besides, on YePEPT [2], the IC50 amounted to 7.6 µM.
Turning to “YePEPT (Yersinia enterocolitica subsp. palearctica YE-P4; K314A)”, the Km in series [4] turned out to be 57.3 µM.
